Reference: PubChem BioAssay AID256 (DTP/NCI, 2004)
Values joined by “and” are separate entries in the source; they are usually repeats but may differ in a detail not shown here. Identical values can stand only once. Toxic doses and inconclusive results are not listed. The calls were made as follows: active = survival T/C of 150% or more; inactive = T/C below 125% in these data.

System: CD2F1 mice, L1210 leukemia ip, survival T/C
Experiment: NCI In Vivo Anticancer Drug Screen. Data for tumor model L1210 Leukemia (intraperitoneal) in CD2F1 (CDF1) mice
Settings: higher = longer survival
In short: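 Transplantable tumor in mice; compound-treated vs vehicle-treated groups. Read-out = treated/control ratio of the measured endpoint.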

[1] = endpoint: mean survival time, dose: 400.0 mg/kg/injection, schedule: Q01DX001 (ip), vehicle: saline with Tween-80
[2] = endpoint: mean survival time, dose: 12.5 mg/kg/injection, schedule: Q01DX005 (ip), vehicle: water
[3] = endpoint: mean survival time, dose: 25.0 mg/kg/injection, schedule: Q01DX005 (ip), vehicle: water
[4] = endpoint: mean survival time, dose: 50.0 mg/kg/injection, schedule: Q01DX005 (ip), vehicle: water
[5] = endpoint: mean survival time, dose: 100.0 mg/kg/injection, schedule: Q01DX005 (ip), vehicle: water
[6] = endpoint: mean survival time, dose: 200.0 mg/kg/injection, schedule: Q01DX005 (ip), vehicle: water
[7] = endpoint: mean survival time, dose: 100.0 mg/kg/injection, schedule: Q01DX001 (ip), vehicle: saline with Tween-80
[8] = endpoint: mean survival time, dose: 200.0 mg/kg/injection, schedule: Q01DX001 (ip), vehicle: saline with Tween-80
[9] = endpoint: mean survival time, dose: 100.0 mg/kg/injection, schedule: Q01DX009 (ip), vehicle: saline with Tween-80
[10] = endpoint: mean survival time, dose: 200.0 mg/kg/injection, schedule: Q01DX009 (ip), vehicle: saline with Tween-80

Measured: T/C

O=NN(CCCl)C(=O)Nc1ccccn1
inactive: endpoint: mean survival time, dose: 12.5 mg/kg/injection, schedule: Q01DX001 (ip), vehicle: other 101 % of control | endpoint: mean survival time, dose: 25.0 mg/kg/injection, schedule: Q01DX001 (ip), vehicle: other 94 % of control | endpoint: mean survival time, dose: 50.0 mg/kg/injection, schedule: Q01DX001 (ip), vehicle: other 101 % of control | endpoint: mean survival time, dose: 100.0 mg/kg/injection, schedule: Q01DX001 (ip), vehicle: other 96 % of control

Cc1ccc(-c2cc(O)cc(-c3ccc(C)cc3C)c2O)c(C)c1
inactive: [1] 91 % of control

CN1CCN(c2ncnc3c2ncn3C2OC(CO)C(O)C2O)CC1 (stereo not given)
inactive: [2] 106 % of control | [3] 106 % of control | [4] 112 % of control | [5] 106 % of control | [6] 102 % of control

O/N=C(/Cc1ccccc1)c1ccccc1
inactive: [7] 100 % of control | [8] 92 % of control | [1] 90 % of control

CN(C)CCCN(C)CCCN(C)C
inactive: endpoint: mean survival time, dose: 75.0 mg/kg/injection, schedule: Q01DX001 (ip), vehicle: saline 104 % of control | endpoint: mean survival time, dose: 150.0 mg/kg/injection, schedule: Q01DX001 (ip), vehicle: saline 103 % of control

O=C(O)CC(O)(CC(=O)O)C(=O)O.[Sn]
inactive: endpoint: mean survival time, dose: 6.25 mg/kg/injection, schedule: Q04DX003 (ip), vehicle: saline with Tween-80 98 % of control | endpoint: mean survival time, dose: 12.5 mg/kg/injection, schedule: Q04DX003 (ip), vehicle: saline with Tween-80 90 % of control | endpoint: mean survival time, dose: 25.0 mg/kg/injection, schedule: Q04DX003 (ip), vehicle: saline with Tween-80 102 % of control

CN(C)c1ccc(/C=N\NC(=O)CNC(=O)Nc2ccc(F)cc2)c(Cl)c1
inactive: endpoint: mean survival time, dose: 50.0 mg/kg/injection, schedule: Q01DX009 (ip), vehicle: saline with Tween-80 100 % of control | [9] 88 % of control | [10] 92 % of control

O=Cc1cccc2ccc3ccccc3c12
inactive: endpoint: median survival time, dose: 50.0 mg/kg/injection, schedule: Q04DX002 (ip), vehicle: saline with Tween-80 111 % of control | endpoint: median survival time, dose: 100.0 mg/kg/injection, schedule: Q04DX002 (ip), vehicle: saline with Tween-80 100 % of control | endpoint: median survival time, dose: 200.0 mg/kg/injection, schedule: Q04DX002 (ip), vehicle: saline with Tween-80 111 % of control

COC1OC2COC(c3ccccc3)OC2C2NC(N)(N[N+](=O)[O-])C12O (stereo not given)
inactive: [7] 91 % of control | [8] 88 % of control | [1] 94 % of control

C[P+](CP(=O)(c1ccccc1)c1ccccc1)(c1ccccc1)c1ccccc1
inactive: endpoint: mean survival time, dose: 25.0 mg/kg/injection, schedule: Q04DX002 (ip), vehicle: saline with Tween-80 107 % of control | endpoint: mean survival time, dose: 50.0 mg/kg/injection, schedule: Q04DX002 (ip), vehicle: saline with Tween-80 92 % of control | endpoint: mean survival time, dose: 100.0 mg/kg/injection, schedule: Q04DX002 (ip), vehicle: saline with Tween-80 96 % of control

O=C(O)CCC(=O)O
inactive: endpoint: mean survival time, dose: 10.0 mg/kg/injection, schedule: Q01DX009 (ip), vehicle: saline 104 % of control | endpoint: mean survival time, dose: 10.0 mg/kg/injection, schedule: Q01DX009 (ip), vehicle: water 95 % of control and 98 % of control | endpoint: mean survival time, dose: 20.0 mg/kg/injection, schedule: Q01DX001 (ip), vehicle: saline 104 % of control | endpoint: mean survival time, dose: 20.0 mg/kg/injection, schedule: Q01DX001 (ip), vehicle: water 95 % of control and 98 % of control | endpoint: mean survival time, dose: 20.0 mg/kg/injection, schedule: Q01DX009 (ip), vehicle: saline 97 % of control | endpoint: mean survival time, dose: 20.0 mg/kg/injection, schedule: Q01DX009 (ip), vehicle: water 101 % of control and 98 % of control | endpoint: mean survival time, dose: 20.0 mg/kg/injection, schedule: Q04DX003 (ip), vehicle: saline 96 % of control | endpoint: mean survival time, dose: 20.0 mg/kg/injection, schedule: Q04DX003 (ip), vehicle: water 98 % of control | endpoint: mean survival time, dose: 40.0 mg/kg/injection, schedule: Q01DX001 (ip), vehicle: saline 104 % of control | endpoint: mean survival time, dose: 40.0 mg/kg/injection, schedule: Q01DX001 (ip), vehicle: water 103 % of control and 101 % of control | endpoint: mean survival time, dose: 40.0 mg/kg/injection, schedule: Q01DX009 (ip), vehicle: saline 104 % of control | endpoint: mean survival time, dose: 40.0 mg/kg/injection, schedule: Q01DX009 (ip), vehicle: water 97 % of control and 95 % of control | endpoint: mean survival time, dose: 40.0 mg/kg/injection, schedule: Q04DX003 (ip), vehicle: saline 102 % of control | endpoint: mean survival time, dose: 40.0 mg/kg/injection, schedule: Q04DX003 (ip), vehicle: water 96 % of control | endpoint: mean survival time, dose: 80.0 mg/kg/injection, schedule: Q01DX001 (ip), vehicle: saline 103 % of control | endpoint: mean survival time, dose: 80.0 mg/kg/injection, schedule: Q01DX001 (ip), vehicle: water 97 % of control | endpoint: mean survival time, dose: 80.0 mg/kg/injection, schedule: Q01DX009 (ip), vehicle: saline 104 % of control | endpoint: mean survival time, dose: 80.0 mg/kg/injection, schedule: Q01DX009 (ip), vehicle: water 95 % of control and 97 % of control | endpoint: mean survival time, dose: 80.0 mg/kg/injection, schedule: Q04DX003 (ip), vehicle: saline 98 % of control | endpoint: mean survival time, dose: 80.0 mg/kg/injection, schedule: Q04DX003 (ip), vehicle: water 91 % of control and 96 % of control | endpoint: mean survival time, dose: 160.0 mg/kg/injection, schedule: Q01DX001 (ip), vehicle: saline 101 % of control | endpoint: mean survival time, dose: 160.0 mg/kg/injection, schedule: Q01DX001 (ip), vehicle: water 98 % of control and 93 % of control | endpoint: mean survival time, dose: 160.0 mg/kg/injection, schedule: Q01DX009 (ip), vehicle: saline 98 % of control | endpoint: mean survival time, dose: 160.0 mg/kg/injection, schedule: Q01DX009 (ip), vehicle: water 98 % of control and 90 % of control | endpoint: mean survival time, dose: 160.0 mg/kg/injection, schedule: Q04DX003 (ip), vehicle: saline 101 % of control | endpoint: mean survival time, dose: 160.0 mg/kg/injection, schedule: Q04DX003 (ip), vehicle: water 98 % of control and 93 % of control | endpoint: mean survival time, dose: 320.0 mg/kg/injection, schedule: Q01DX001 (ip), vehicle: saline 106 % of control | endpoint: mean survival time, dose: 320.0 mg/kg/injection, schedule: Q01DX001 (ip), vehicle: water 101 % of control | endpoint: mean survival time, dose: 320.0 mg/kg/injection, schedule: Q04DX003 (ip), vehicle: saline 98 % of control | endpoint: mean survival time, dose: 320.0 mg/kg/injection, schedule: Q04DX003 (ip), vehicle: water 87 % of control and 98 % of control | endpoint: mean survival time, dose: 640.0 mg/kg/injection, schedule: Q01DX001 (ip), vehicle: saline 103 % of control | endpoint: mean survival time, dose: 640.0 mg/kg/injection, schedule: Q01DX001 (ip), vehicle: water 101 % of control

CN(C)c1ncnc2c1cnn2C1OC(CO)C(O)C1O (stereo not given)
inactive: [2] 93 % of control | [3] 90 % of control | [4] 107 % of control | [5] 100 % of control | [6] 100 % of control

CCCCCC/C=C\C(=O)O
inactive: endpoint: mean survival time, dose: 50.0 mg/kg/injection, schedule: Q01DX009 (ip), vehicle: saline 101 % of control | endpoint: mean survival time, dose: 100.0 mg/kg/injection, schedule: Q01DX009 (ip), vehicle: saline 97 % of control | endpoint: mean survival time, dose: 100.0 mg/kg/injection, schedule: Q04DX003 (ip), vehicle: saline with Tween-80 98 % of control | endpoint: mean survival time, dose: 200.0 mg/kg/injection, schedule: Q01DX009 (ip), vehicle: saline 93 % of control | endpoint: mean survival time, dose: 200.0 mg/kg/injection, schedule: Q04DX003 (ip), vehicle: saline with Tween-80 93 % of control | endpoint: mean survival time, dose: 400.0 mg/kg/injection, schedule: Q04DX003 (ip), vehicle: saline with Tween-80 87 % of control

Nc1ncnc2c1ncn2C1OC(COP(=O)(O)O)C(O)C1O.[NH-]C1CCCCC1[NH-].[Pt+2] (stereo not given)
inactive: endpoint: median survival time, dose: 3.12 mg/kg/injection, schedule: Q04DX003 (ip), vehicle: saline 101 % of control | endpoint: median survival time, dose: 6.25 mg/kg/injection, schedule: Q04DX003 (ip), vehicle: saline 108 % of control | endpoint: median survival time, dose: 12.5 mg/kg/injection, schedule: Q04DX003 (ip), vehicle: saline 103 % of control | endpoint: median survival time, dose: 25.0 mg/kg/injection, schedule: Q04DX003 (ip), vehicle: saline 108 % of control | endpoint: median survival time, dose: 50.0 mg/kg/injection, schedule: Q04DX003 (ip), vehicle: saline 112 % of control | endpoint: median survival time, dose: 100.0 mg/kg/injection, schedule: Q04DX003 (ip), vehicle: saline 108 % of control | endpoint: median survival time, dose: 200.0 mg/kg/injection, schedule: Q04DX003 (ip), vehicle: saline 122 % of control

CCOC12c3c4cccc3Oc3cccc(c31)S(=O)(=O)c1cccc(c12)O4
inactive: [7] 89 % of control | [8] 89 % of control

CC(=O)OC1CCC2(C)C(CCC3C4CC=C(C(C)=O)C4(C)CCC32)C1 (stereo not given)
inactive: [9] 92 % of control | [10] 92 % of control | endpoint: mean survival time, dose: 400.0 mg/kg/injection, schedule: Q01DX009 (ip), vehicle: saline with Tween-80 89 % of control
